Where “and” joins values, the source holds several entries; their conditions need not be identical. Equal values may be shown once. Read-outs that look alike come from different tables or passages of the source.
How the values were obtained:
[1] = phase 1 plasma pharmacokinetics, noncompartmental; conditions: for AUCt: carboplatin AUC 6 mg/mL min IV day 3, last sampling 21 h
Experimental: Six cycles of therapy were planned.
Plasma samples were stored at −20 °C until shipment to AbbVie. […] Plasma concentrations of carboplatin were determined using an inductively coupled plasma mass spectrometry. Standard pharmacokinetic parameters were determined using non-compartmental methods.

[2] = system: patients with triple-negative breast cancer; conditions: with carboplatin and paclitaxel; cited from earlier work
[3] = system: Japanese patients with NSCLC; experiment: phase 1 anti-tumor response (RECIST version 1.1) of veliparib plus carboplatin and paclitaxel; assay type: in vivo, human
Experimental: A CT scan of the full chest and abdomen with images of the liver and adrenal glands was performed for all tumor assessments at screening (within 3 weeks prior to registration) and at the end of every 2 cycles (6 weeks). Tumor assessments were performed within 7 days of the scheduled date.

[4] = system: patients with advanced or metastatic solid tumors; conditions: cited from earlier work
PARP activity in PBMCs = conditions: 50 mg, maintained for 24 h in 3 subjects; cited from earlier work
[5] = design: method as in printed; conditions: ref not given; cited from earlier work
[6] = system: patients with advanced or metastatic NSCLC; conditions: cited from earlier work
[7] = in humans; cited from earlier work
[8] = system: major cytochrome P450 enzymes; conditions: at therapeutic doses; cited from earlier work
major drug transporters = conditions: at therapeutic doses; cited from earlier work
[9] = system: PARP activity in tumor biopsies; conditions: cited from earlier work; for PARP inhibition in tumor biopsies, average: 50 mg
[10] = system: patients with newly diagnosed ovarian cancer; design: method as in GOG 9923; conditions: with carboplatin, paclitaxel, and bevacizumab; study ongoing; ref GOG 9923; cited from earlier work
[11] = system: patients with triple-negative breast cancer; conditions: veliparib and carboplatin plus standard neoadjuvant therapy; cited from earlier work
[12] = design: method as in printed; conditions: ref not given; cited from earlier work; remark: listed apart in the source
lung cancer tumor models = conditions: preclinical lung cancer tumor models; cited from earlier work
[13] = plus carboplatin and paclitaxel
[14] = carboplatin AUC 6 mg/mL min IV day 3, all patients N = 12, mean ± SD
[15] = carboplatin AUC 6 mg/mL min IV day 3, with veliparib 40 mg BID n = 3, mean ± SD
[16] = carboplatin AUC 6 mg/mL min IV day 3, with veliparib 80 mg BID n = 3, mean ± SD
[17] = carboplatin AUC 6 mg/mL min IV day 3, with veliparib 120 mg (BID) n = 6, mean ± SD

`CC(=O)O[C@H]1C(=O)[C@@]2(C)[C@H]([C@H](OC(=O)c3ccccc3)[C@]3(O)C[C@H](OC(=O)[C@H](O)[C@@H](NC(=O)c4ccccc4)c4ccccc4)C(C)=C1C3(C)C)[C@]1(OC(C)=O)CO[C@@H]1C[C@@H]2O` [Paclitaxel, reference compound] showed a T max ([1]; human, in vivo, iv) of 3.0 ± 0.0 h, an AUC(0-t) ([1]; human, in vivo, iv, 200 mg/m2, AUCt) of 24800 ± 2860 ng·h/mL and an AUC(0-inf) ([1]; human, in vivo, iv, 200 mg/m2, AUC∞) of 25500 ± 2890 ng·h/mL. It also gave a Cmax ([1]; human, in vivo, iv, 200 mg/m2, C max) of 6840 ± 1200 ng/mL, a Tmax ([1]; human, in vivo, iv, 200 mg/m2, T max) of 2.9 ± 0.3 h and a Tmax ([1]; human, in vivo, iv, T max) of 3.1 ± 0.2 h.
For `C[C@]1(c2nc3c(C(N)=O)cccc3[nH]2)CCCN1` [Veliparib, 2-[(R)-2-methylpyrrolidin-2-yl]-1H-benzimidazole-4-carboxamide], the dose cleared [2] is listed as “up to 200 mg BID”, the “patients who developed progressive disease (PD)” value ([3]; 80 mg BID) is listed as “One” and the “median PFS” value ([3]; all dose levels) is listed as 92 days. For the same molecule, the “patients who achieved PR at the first CT scan” value ([3]; all dose levels) was 3, the “patients who achieved a PR” value ([3]; all dose levels, 11 patients) was “Six” and the overall response rate ([3]; efficacy population, 11 patients) was 55%. For the same molecule, the “maximum dose of veliparib” value ([4]; for 7 days in addition to standard doses of carboplatin and paclitaxel) was 120 mg BID, the “complete response (CR)” value ([4]; phase 1 dose-escalation study) was 3% and the “complete response (CR), patients” value ([4]; phase 1 dose-escalation study) was 2/68. The “partial response (PR)” value ([4]; phase 1 dose-escalation study) was 16%, the “partial response (PR), patients” value ([4]; phase 1 dose-escalation study) was 11/68 and the stable disease ([4]; phase 1 dose-escalation study) was 51%. For the same molecule, the “stable disease, patients” value ([4]; phase 1 dose-escalation study) was 35/68, the RPTD ([4]; with standard doses of carboplatin and paclitaxel) was 100 mg BID and the “inhibition of PARP activity in PBMCs” value (PARP activity in PBMCs) was “Complete inhibition”. The solubility [5] was “highly soluble”, the “Overall survival (OS)” value [6, 13] was 11.1 months and the “median progression-free survival (PFS)” value [6, 13] was 5.8 months. For the same molecule, the “HR (PFS)” value ([6]; veliparib versus placebo, each plus carboplatin and paclitaxel) was 0.71, the elimination [7] was “primarily eliminated by renal excretion” and the “AUC0–8/dose” value ([1]; human, in vivo) was 31.4 ± 6.69 (ng h/mL)/mg. For the same molecule, the “AUC∞/dose” value ([1]; human, in vivo) was 44.2 ± 11.3 (ng h/mL)/mg, the C max/dose ([1]; human, in vivo) was 7.06 ± 1.29 (ng/mL)/mg and the “AUC0–8/dose” value ([1]; human, in vivo, 40 mg) was 32.2 ± 9.24 (ng h/mL)/mg. The “AUC∞/dose” value ([1]; human, in vivo, 40 mg) was 46.0 ± 16.8 (ng h/mL)/mg, the C max/dose ([1]; human, in vivo, 40 mg) was 8.18 ± 1.19 (ng/mL)/mg and the AUC(0-t) ([1]; human, in vivo, 40 mg, AUC0–8) was 1290 ± 370 ng·h/mL. For the same molecule, the AUC(0-inf) ([1]; human, in vivo, 40 mg, AUC∞) was 1840 ± 671 ng·h/mL, the Cmax ([1]; human, in vivo, 40 mg, C max) was 327 ± 47.7 ng/mL and the Tmax ([1]; human, in vivo, 40 mg, T max) was 2.5 ± 1.3 h. For the same molecule, the “AUC0–8/dose” value ([1]; human, in vivo, 80 mg) was 26.7 ± 2.46 (ng h/mL)/mg, the “AUC∞/dose” value ([1]; human, in vivo, 80 mg) was 35.0 ± 3.33 (ng h/mL)/mg and the C max/dose ([1]; human, in vivo, 80 mg) was 6.01 ± 0.35 (ng/mL)/mg. The AUC(0-t) ([1]; human, in vivo, 80 mg, AUC0–8) was 2140 ± 197 ng·h/mL, the AUC(0-inf) ([1]; human, in vivo, 80 mg, AUC∞) was 2800 ± 266 ng·h/mL and the Cmax ([1]; human, in vivo, 80 mg, C max) was 481 ± 27.8 ng/mL. The Tmax ([1]; human, in vivo, 80 mg, T max) was 3.3 ± 1.2 h, the “AUC0–8/dose” value ([1]; human, in vivo, 120 mg) was 33.3 ± 6.34 (ng h/mL)/mg and the “AUC∞/dose” value ([1]; human, in vivo, 120 mg) was 48.0 ± 9.72 (ng h/mL)/mg. The C max/dose ([1]; human, in vivo, 120 mg) was 7.03 ± 1.27 (ng/mL)/mg, the “dose proportionality of Cmax and AUC” value ([1]; human, in vivo, 120 mg) was “approximately dose proportional” and the AUC(0-t) ([1]; human, in vivo, 120 mg, AUC0–8) was 3990 ± 796 ng·h/mL. The AUC(0-inf) ([1]; human, in vivo, 120 mg, AUC∞) was 5760 ± 1170 ng·h/mL, the Cmax ([1]; human, in vivo, 120 mg, C max) was 844 ± 152 ng/mL and the Tmax ([1]; human, in vivo, 120 mg, T max) was 3 ± 1.1 h. The “pharmacokinetic profile, Japanese versus Western populations” value ([1]; in vivo) was “generally comparable”, the “inhibition of major cytochrome P450 enzymes” value [8] was “not an inhibitor” and the “inhibition of major drug transporters” value (major drug transporters) was “not an inhibitor”. The “PARP inhibition in tumor biopsies, average” value ([9]; 3–6 h after dosing (N = 3)) was 75%, the “PARP inhibition in tumor biopsies, average” value ([9]; 24 h after dosing (N = 3)) was 74% and the “inhibition of PARP activity in tumor biopsies” value ([9]; single dose of 25 mg, 3–6 h after dosing, 3 subjects (one value each)) was 92% and 95% and 100%. For the same molecule, the dose cleared [10] was at least 150 mg BID, the “estimated pathologic complete response rate” value [11] was 52% and the permeability [12] was “permeable”. For the same molecule, the “effect on platinum-based chemotherapy” value (lung cancer tumor models) was “potentiates the effect of platinum-based chemotherapy”.
For `N.N.O=C([O-])C1(C(=O)[O-])CCC1.[Pt+2]` [Carboplatin, reference compound], the AUCt ([1]; all patients N = 12, mean ± SD) was 92500 ± 6540 ng·h/mL, the AUCt ([1]; with veliparib 40 mg BID n = 3, mean ± SD) was 94100 ± 9910 ng·h/mL and the AUCt ([1]; with veliparib 80 mg BID n = 3, mean ± SD) was 95100 ± 5830 ng·h/mL. The AUCt ([1]; with veliparib 120 mg (BID) n = 6, mean ± SD) was 90300 ± 5450 ng·h/mL, the “AUC∞” value [1, 14] was 103000 ± 7670 ng·h/mL and the C max [1, 14] was 22600 ± 2250 ng/mL. The T max [1, 14] was 1.0 ± 0.0 h, the “AUC∞” value [1, 15] was 105000 ± 12300 ng·h/mL and the C max [1, 15] was 22300 ± 2370 ng/mL. For the same molecule, the T max [1, 15] was 1.0 ± 0.0 h, the “AUC∞” value [1, 16] was 105000 ± 7140 ng·h/mL and the C max [1, 16] was 24300 ± 1160 ng/mL. The T max [1, 16] was 1.0 ± 0.0 h, the “AUC∞” value [1, 17] was 100000 ± 5730 ng·h/mL and the C max [1, 17] was 22000 ± 2450 ng/mL. For the same molecule, the T max [1, 17] was 1.0 ± 0.0 h and the “pharmacokinetics when co-administered with 40, 80, or 120 mg veliparib BID” value ([1]; day 3 of cycle 1) was “comparable”.

— paper PMC4612330 (Cancer Chemotherapy and Pharmacology, 2015)
